Like-named read-outs stand apart in the source and are kept apart here.
Molecular target: T1, recombinant HIV-1 protease (Human immunodeficiency virus type 1 group M subtype B, UniProt P04585)
T1 construct: recombinant HIV-1 protease (final concentration 2.18 nM) purchased from Bachem Bioscience; purchased Bachem Bioscience
Assay: Enzymatic fluorometric (FRET) assay for determining the inhibition constant (Ki) against HIV protease
Format: biochemical
Description: An Enzymatic assay for determining the inhibition constant (Ki) of synthetic compounds targeting the HIV protease may be carried out as follows: This is a fluorometric assay based on the cleavage by protease of a substrate carrying a donor group (EDANS) and an acceptor group (DABCYL) on each side of the cleavage site, interacting together through fluorescence resonance energy transfer (FRET). Cleavage of the substrate by protease stops energy exchange between the two groups, resulting in a time-dependent increase in fluorescence intensity that is linearly related to the extent of substrate hydrolysis.
The enzymatic assay is done at 31° C. in white 96-well fluorescence microplates, in a total volume of 200 μL per well. The apparatus used for analysis is a FL600 fluorescence microplate reader (Biotek Instruments). […] Excitation of the fluorophore is done at 340 nm and emission at 485 nm is recorded continuously during the reaction, allowing determination of the enzyme's initial velocity (v0). At the end of the 4 min incubation, the potential inhibitor at a defined concentration in a volume of 4 μL is added to the reaction, and fluorescence readings are taken for another 4 min, allowing determination of enzyme velocity (vi) in the presence of the inhibitory compound. Several concentrations of the putative inhibitors are tested in the assay. After calculation of v0 and vi, the inhibition constant (Ki) of the compound is determined using the equation of Henderson: [formula]
and [I]=inhibitor concentration, [S]=substrate concentration,
Km=Michaelis-Menten constant, Kiapp=apparent Ki
Graphs are traced and the Ki determined using GraphPad Prism software v. 3.0.

[1] = fluorometric FRET assay, recombinant HIV-1 protease, pH 4.7, 31° C., read-out: Ki
[2] = Ki (nM), fluorometric FRET assay, recombinant HIV-1 protease, pH 4.7, 31° C.
[3] = fluorometric FRET assay, 31° C., pH 4.7, recombinant HIV-1 protease 2.18 nM, substrate 10 μM, read-out: Ki

Molecule | Ki [1] | other results
CC1(C)[C@@H]2CC[C@@]1(CS(=O)(=O)NCCCC[C@H](NC(=O)OCC1c3ccccc3-c3ccccc31)C(=O)O)C(=O)C2 [Compound 35, Nε-(1S)-(10-Camphorsulfonyl)-Nα-(9-fluorenylmethoxycarbonyl)-L-lysine] | 33000 nM | 
O=C(N[C@@H](CCCCNS(=O)(=O)c1ccc(Br)cc1)C(=O)O)C(c1ccccc1)c1ccccc1 [Compound 36, Nα-(Diphenylacetyl)-Nε-(4-bromobenzenesulfonyl)-L-lysine] | 24000 nM | 
CC(C)CN([C@@H](CCCCNC(=O)C=Cc1ccc([N+](=O)[O-])cc1)C(=O)O)S(=O)(=O)c1ccc([N+](=O)[O-])cc1 [Compound 111, Nα-Isobutyl-Nα-(4-nitrobenzenesulfonyl)-Nε-(4-nitrocinnamoyl)-L-lysine] |  | Ki [2]: 34.4 nM
CC(C)CN(CCC[C@H](NC(=O)OCC1c2ccccc2-c2ccccc21)C(=O)O)S(=O)(=O)c1ccc(Br)cc1 [Compound 41, Nα-(9-Fluorenylmethoxycarbonyl)-Nδ-isobutyl-Nδ-(4-bromobenzenesulfonyl)-L-ornithine] | > 50000 nM | 
CC(C)CN(C(CCCCNC(=O)OCc1ccccc1)C(=O)O)S(=O)(=O)c1ccc(Cl)cc1 (stereo not drawn) [Compound 4] | > 100 nM | 
Cc1cc(C)c(S(=O)(=O)N(CC(C)C)[C@@H](CCCCNC(=O)OCC2c3ccccc3-c3ccccc32)C(=O)O)c(C)c1 [Compound 42, Nα-Isobutyl-Nα-(2,4,6-trimethylbenzenesulfonyl)-Nε-(9-fluorenylmethoxycarbonyl)-L-lysine] | > 100 nM | 
Cc1ccc(S(=O)(=O)N(CC(C)C)[C@@H](CCCCNC(=O)CCc2c[nH]c3ccccc23)C(=O)O)cc1 [Compound 89] | 6.9 nM | 
Cc1ccc(S(=O)(=O)N(CC(C)C)[C@@H](CCCCNC(=O)COc2ccccc2)C(=O)O)cc1 [Compound 203, Nα-Isobutyl-Nα-(4-methylbenzenesulfonyl)-Nε-phenoxyacetyl-L-lysine] |  | Ki [3]: 17.5 nM
Cc1ccc(S(=O)(=O)N(CC(C)C)C(CCCNC(=O)OCC2c3ccccc3-c3ccccc32)C(=O)O)cc1 (racemic) [Compound 6, Nα-Isobutyl-Nα-(4-methylbenzenesulfonyl)-Nδ-(9-fluorenylmethoxycarbonyl)-DL-ornithine] |  | Ki (Ki (nM)): 180 nM
CC(C)CN([C@@H](CCCCNC(=O)CCc1c[nH]c2ccccc12)C(=O)O)S(=O)(=O)c1ccc([N+](=O)[O-])cc1 [Compound 95, Nα-Isobutyl-Nα-(4-nitrobenzenesulfonyl)-Nε-(3-indolepropionyl)-L-lysine] | 33.4 nM | 
Cc1ccc(S(=O)(=O)N(CC(C)C)[C@@H](CCCCNC(=O)C(c2ccccc2)c2ccccc2)C(=O)O)cc1 [Compound 86] | 171 nM | 
CC(C)CN([C@@H](CCCCNC(=O)CCc1ccc(N)cc1)C(=O)O)S(=O)(=O)c1ccc(N)cc1 [Compound 194, Nα-Isobutyl-Nα-(4-aminobenzenesulfonyl)-Nε-(4-aminodihydrocinnamoyl)-L-lysine] |  | Ki [3]: > 300 nM
Nα-Isobutyl-Nα-(4-methylbenzenesulfonyl)-Nε-phenylthioacetyl-L-lysine [Compound 202] | 8400 nM | Ki [3]: 18 nM
O=C(N[C@@H](CCCCNS(=O)(=O)c1ccc(I)cc1)C(=O)O)OCC1c2ccccc2-c2ccccc21 [Compound 64, Nε-(4-Iodobenzenesulfonyl)-Nα-(9-fluorenylmethoxycarbonyl)-L-lysine] | 19200 nM | 
Cc1ccc(S(=O)(=O)N(CC(C)C)C(CCCCNC(CCc2ccccc2)=NC#N)C(=O)O)cc1 (racemic) [Compound 204, Nα-Isobutyl-Nα-(4-methylbenzenesuIfonyl)-Nε-(dihydrothiocinnamoyl-N-cyanoamidine)-DL-lysine] | > 200000 nM | Ki [3]: 34 nM
Cc1ccc(S(=O)(=O)N(CC(C)C)C(CCCCNC(=O)OCC2c3ccccc3-c3ccccc32)C(=O)O)cc1 (racemic) [Compound 2, Nα-Isobutyl-Nα-(4-methylbenzenesulfonyl)-Nε-(9-fluorenylmethoxycarbonyl)-DL-lysine] |  | Ki (Ki (nM)): 5 nM
CC(C)CN([C@@H](CCCCNC(=O)CCc1ccccc1N)C(=O)O)S(=O)(=O)c1ccc(N)cc1 [Compound 122, Nα-Isobutyl-Nα-(4-aminobenzenesulfonyl)-Nε-(2-aminodihydrocinnamoyl)-L-lysine] | > 300 nM | 
Nα-(4-Chlorobenzenesulfonyl)-Nδ-(9-fluorenylmethoxycarbonyl)-L-ornithine [Compound 74] | > 25000 nM | 
O=C(N[C@@H](CCCCNS(=O)(=O)Cc1ccccc1)C(=O)O)OCC1c2ccccc2-c2ccccc21 [Compound 33, Nε-Phenylmethylsulfonyl-Nα-(9-fluorenylmethoxycarbonyl)-L-lysine] | 20000 nM | 

Molecule | Ki [1] | other results
CC(C)CN([C@@H](CCCCNS(=O)(=O)c1ccc([N+](=O)[O-])cc1)C(=O)O)S(=O)(=O)c1ccc([N+](=O)[O-])cc1 [Compound 116, Nα-Isobutyl-Nα,Nε-di-(4-nitrobenzenesulfonyl)-L-lysine] |  | Ki [2]: > 300 nM
CC(C)c1cc(C(C)C)c(S(=O)(=O)NCCCC[C@H](NC(=O)OCC2c3ccccc3-c3ccccc32)C(=O)O)c(C(C)C)c1 [Compound 25, Nε-(2,4,6-Triisopropylbenzenesulfonyl)-Nα-(9-fluorenylmethoxycarbonyl)-L-lysine] | > 3100 nM | 
Cc1ccc(S(=O)(=O)N(CC(C)C)[C@@H](CCCCNC(=O)OCC2c3ccccc3-c3ccccc32)C(=O)O)cc1 [Compound 67, Nα-Isobutyl-Nα-(4-methylbenzenesulfonyl)-Nε-(9-fluorenylmethoxycarbonyl)-L-lysine] |  | Ki (Ki (nM)): 4.3 nM
COc1ccc(CCC(=O)NCCCC[C@@H](C(=O)O)N(CC(C)C)S(=O)(=O)c2ccc(N)cc2)cc1OC [Compound 200, Nα-Isobutyl-Nα-(4-aminobenzenesulfonyl)-Nε-(3,4-dimethoxydihydrocinnamoyl)-L-lysine] |  | Ki [3]: 132 nM
O=C(N[C@@H](CCCCNS(=O)(=O)c1ccccc1)C(=O)O)OCC1c2ccccc2-c2ccccc21 [Compound 49, Nε-Benzenesulfonyl-Nα-(9-fluorenylmethoxycarbonyl)-L-lysine] | 8900 nM | 
CC(C)CN([C@@H](CCCCNC(=O)CCc1ccc2c(c1)OCO2)C(=O)O)S(=O)(=O)c1ccc(N)cc1 [Compound 155, Nα-Isobutyl-Nα-(4-aminobenzenesulfonyl)-Nε-(3,4-methylenedioxydihydrocinnamoyl)-L-lysine] | 15.7 nM | 
O=C(N[C@@H](CCCCNS(=O)(=O)c1ccc(Br)cc1)C(=O)O)OCC1c2ccccc2-c2ccccc21 [Compound 16, Nε-(4-Bromobenzenesulfonyl)-Nα-(9-fluorenylmethoxycarbonyl)-L-lysine] | 13000 nM | 
O=C(N[C@@H](CCCCNS(=O)(=O)c1ccc(Cl)cc1)C(=O)O)OCC1c2ccccc2-c2ccccc21 [Compound 53, Nε-(4-Chlorobenzenesulfonyl)-Nα-(9-fluorenylmethoxycarbonyl)-L-lysine] | 4800 nM | 
CCC(CC)CN([C@@H](CCCCNC(=O)OCc1ccccc1)C(=O)OCc1ccccc1)S(=O)(=O)c1ccc(C)cc1 [Compound 80] | > 1250 nM | 
Cc1ccc(S(=O)(=O)N(CC(C)C)C(CCCCNC(=O)c2cc3ccccc3[nH]2)C(=O)O)cc1 (stereo not drawn) [Compound 88] | > 625 nM | 
O=C(N[C@@H](CCCCNS(=O)(=O)c1ccccc1Br)C(=O)O)OCC1c2ccccc2-c2ccccc21 [Compound 24, Nε-(2-Bromobenzenesulfonyl)-Nα-(9-fluorenylmethoxycarbonyl)-L-lysine] | 36000 nM | 
CC(C)CN([C@@H](CCCCNC(=O)CCc1c[nH]c2ccccc12)C(=O)O)S(=O)(=O)c1ccc(N)cc1 [Compound 98, Nα-Isobutyl-Nα-(4-aminobenzenesulfonyl)-Nε-(3-indolepropionyl)-L-lysine] | 10.1 nM | 
Nα-Isobutyl-Nα-(4-aminobenzenesulfonyl)-Nε-(4-methoxydihydrocinnamoyl)-L-lysine [Compound 120] | 21.7 nM | 
Cc1ccc(S(=O)(=O)N(CC(C)C)[C@@H](CCCCNC(=O)/C=C/c2ccccc2)C(=O)O)cc1 [Compound 90] | 747 nM | 
CC(C)CN([C@@H](CCCCNC(=O)COc1ccccc1)C(=O)O)S(=O)(=O)c1ccc([N+](=O)[O-])cc1 [Compound 160, Nα-Isobutyl-Nα-(4-nitrobenzenesulfonyl)-Nε-phenoxyacetyl-L-lysine] | 24.5 nM | 
O=C(Cc1c[nH]c2ccccc12)N[C@@H](CCCCNS(=O)(=O)c1ccc(Br)cc1)C(=O)O [Compound 29, Nα-(3-Indoleacetyl)-Nε-(4-bromobenzenesulfonyl)-L-lysine] | 10500 nM | 
CC(C)CN([C@@H](CCCCNC(=O)C=Cc1ccccc1[N+](=O)[O-])C(=O)O)S(=O)(=O)c1ccc([N+](=O)[O-])cc1 [Compound 109, Nα-Isobutyl-Nα-(4-nitrobenzenesulfonyl)-Nε-(2-nitrocinnamoyl)-L-lysine] |  | Ki [2]: > 300 nM
COc1cccc(CCC(=O)NCCCC[C@@H](C(=O)O)N(CC(C)C)S(=O)(=O)c2ccc(N)cc2)c1OC [Compound 119, Nα-Isobutyl-Nα-(4-aminobenzenesulfonyl)-Nε-(2,3-dimethoxydihydrocinnamoyl)-L-lysine] | 6.2 nM | 

Source: patent US6455587B1 (priority 2000, dated 2002)
